Data published in PubChem BioAssay AID328 (DTP/NCI, 2004).
“And” between values parts separate entries of the source, which are not always exact repeats. Identical values can stand only once. Toxic doses and inconclusive results are not listed. The calls were made as follows: active = survival T/C of 150% or more; inactive = T/C below 125% in these data.

Test system: BDF1 mice, P388 leukemia ip, median survival T/C
Assay: NCI In Vivo Anticancer Drug Screen. Data for tumor model P388 Leukemia (intraperitoneal) in B6D2F1 (BDF1) mice
Conditions: endpoint: median survival time, higher = longer survival
How it was run: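 Vehicle-dosed animals serve as the reference; survival of compound-dosed, tumour-implanted mice is divided by it.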

[1] = dose: 6.25 mg/kg/injection, schedule: Q01DX009 (ip), vehicle: saline with Tween-80
[2] = dose: 12.5 mg/kg/injection, schedule: Q01DX009 (ip), vehicle: saline with Tween-80
[3] = dose: 25.0 mg/kg/injection, schedule: Q01DX009 (ip), vehicle: saline with Tween-80
[4] = dose: 50.0 mg/kg/injection, schedule: Q01DX009 (ip), vehicle: saline with Tween-80
[5] = dose: 100.0 mg/kg/injection, schedule: Q04DX003 (ip), vehicle: Klucel (hydroxypropylcellulose) (HPC)
[6] = dose: 200.0 mg/kg/injection, schedule: Q04DX003 (ip), vehicle: Klucel (hydroxypropylcellulose) (HPC)
[7] = dose: 100.0 mg/kg/injection, schedule: Q04DX003 (ip), vehicle: saline
[8] = dose: 200.0 mg/kg/injection, schedule: Q04DX003 (ip), vehicle: saline
[9] = dose: 100.0 mg/kg/injection, schedule: Q01DX009 (ip), vehicle: saline
[10] = dose: 200.0 mg/kg/injection, schedule: Q01DX009 (ip), vehicle: saline
[11] = dose: 400.0 mg/kg/injection, schedule: Q01DX009 (ip), vehicle: saline

Measured: T/C

c1cc(OCC2CO2)ccc1OCC1CO1 (centres undefined)
active: dose: 177.0 mg/kg/injection, schedule: Q04DX003 (ip), vehicle: saline with Tween-80 153 % of control
inactive: dose: 78.0 mg/kg/injection, schedule: Q04DX003 (ip), vehicle: saline with Tween-80 119 % of control | dose: 600.0 mg/kg/injection, schedule: Q04DX003 (ip), vehicle: saline with Tween-80 122 % of control

CCOC(=O)C(C(=O)OCC)=C(C)OCC
inactive: [1] 106 % of control | [2] 86 % of control | [3] 97 % of control | dose: 25.0 mg/kg/injection, schedule: Q04DX003 (ip), vehicle: saline with Tween-80 99 % of control | [4] 97 % of control | dose: 50.0 mg/kg/injection, schedule: Q04DX003 (ip), vehicle: saline with Tween-80 107 % of control | dose: 100.0 mg/kg/injection, schedule: Q01DX009 (ip), vehicle: saline with Tween-80 106 % of control | dose: 100.0 mg/kg/injection, schedule: Q04DX003 (ip), vehicle: saline with Tween-80 90 % of control | dose: 200.0 mg/kg/injection, schedule: Q04DX003 (ip), vehicle: saline with Tween-80 107 % of control

CC(=O)c1ccccc1Br
inactive: dose: 100.0 mg/kg/injection, schedule: Q01DX001 (ip), vehicle: Klucel (hydroxypropylcellulose) (HPC) 95 % of control | [5] 95 % of control | dose: 200.0 mg/kg/injection, schedule: Q01DX001 (ip), vehicle: Klucel (hydroxypropylcellulose) (HPC) 108 % of control | [6] 100 % of control | dose: 400.0 mg/kg/injection, schedule: Q01DX001 (ip), vehicle: Klucel (hydroxypropylcellulose) (HPC) 100 % of control | dose: 400.0 mg/kg/injection, schedule: Q04DX003 (ip), vehicle: Klucel (hydroxypropylcellulose) (HPC) 100 % of control

CC(=O)n1ccnc1/C=C\c1ccc([N+](=O)[O-])s1
inactive: dose: 50.0 mg/kg/injection, schedule: Q04DX003 (ip), vehicle: Klucel (hydroxypropylcellulose) (HPC) 95 % of control | [5] 110 % of control | [6] 105 % of control

C=CCNC(=O)C(Br)(CC)CC
inactive: dose: 12.5 mg/kg/injection, schedule: Q01DX009 (ip), vehicle: saline 100 % of control | dose: 25.0 mg/kg/injection, schedule: Q01DX009 (ip), vehicle: saline 100 % of control | dose: 50.0 mg/kg/injection, schedule: Q01DX009 (ip), vehicle: saline 88 % of control and 100 % of control

COC(=O)c1cccc(OC)c1C(=O)OC
inactive: dose: 100.0 mg/kg/injection, schedule: Q04DX002 (ip), vehicle: saline with Tween-80 104 % of control | dose: 200.0 mg/kg/injection, schedule: Q04DX002 (ip), vehicle: saline with Tween-80 102 % of control

Cc1ccc(S(=O)(=O)OCCN(CCOS(=O)(=O)c2ccc(C)cc2)c2cc(OCc3ccccc3)cc(OCc3ccccc3)c2)cc1
inactive: dose: 1.56 mg/kg/injection, schedule: Q01DX009 (ip), vehicle: water 90 % of control and 99 % of control | dose: 3.12 mg/kg/injection, schedule: Q01DX009 (ip), vehicle: water 93 % of control and 100 % of control | dose: 6.25 mg/kg/injection, schedule: Q01DX009 (ip), vehicle: water 98 % of control and 110 % of control | dose: 12.5 mg/kg/injection, schedule: Q01DX009 (ip), vehicle: water 91 % of control and 100 % of control | dose: 25.0 mg/kg/injection, schedule: Q01DX009 (ip), vehicle: water 93 % of control and 100 % of control | dose: 50.0 mg/kg/injection, schedule: Q04DX003 (ip), vehicle: water 91 % of control | dose: 100.0 mg/kg/injection, schedule: Q01DX009 (ip), vehicle: water 88 % of control | dose: 100.0 mg/kg/injection, schedule: Q04DX003 (ip), vehicle: water 89 % of control | dose: 200.0 mg/kg/injection, schedule: Q04DX003 (ip), vehicle: water 97 % of control | dose: 400.0 mg/kg/injection, schedule: Q04DX003 (ip), vehicle: water 97 % of control

Cc1cccc(C)c1NC(=S)N(C)C
inactive: dose: 3.13 mg/kg/injection, schedule: Q01DX009 (ip), vehicle: saline with Tween-80 100 % of control | [1] 100 % of control | dose: 12.0 mg/kg/injection, schedule: Q01DX001 (ip), vehicle: Klucel (hydroxypropylcellulose) (HPC) 109 % of control | [2] 95 % of control | dose: 25.0 mg/kg/injection, schedule: Q01DX001 (ip), vehicle: Klucel (hydroxypropylcellulose) (HPC) 100 % of control | dose: 50.0 mg/kg/injection, schedule: Q01DX001 (ip), vehicle: Klucel (hydroxypropylcellulose) (HPC) 100 % of control | [7] 100 % of control

CC(=O)/C=C/c1ccc([N+](=O)[O-])cc1
inactive: dose: 100.0 mg/kg/injection, schedule: Q04DX003 (ip), vehicle: saline sonified 90 % of control | dose: 200.0 mg/kg/injection, schedule: Q04DX003 (ip), vehicle: saline sonified 90 % of control | dose: 400.0 mg/kg/injection, schedule: Q04DX003 (ip), vehicle: saline sonified 100 % of control

CCCCCC(C(C)=O)(C1=NC(C)(C)CC(C)O1)c1ccccc1 (centres undefined)
inactive: [7] 110 % of control | [8] 95 % of control

COC(=O)C(C)(OC)OC
inactive: [9] 100 % of control | [10] 100 % of control | [11] 100 % of control

c1cc[c]([Sn]([c]2ccccc2)([c]2ccccc2)[n]2cnc3ccccc32)cc1
inactive: dose: 0.1 mg/kg/injection, schedule: Q01DX009 (ip), vehicle: Klucel (hydroxypropylcellulose) (HPC) 90 % of control | dose: 0.21 mg/kg/injection, schedule: Q01DX009 (ip), vehicle: Klucel (hydroxypropylcellulose) (HPC) 90 % of control | dose: 0.43 mg/kg/injection, schedule: Q01DX009 (ip), vehicle: Klucel (hydroxypropylcellulose) (HPC) 90 % of control | dose: 0.87 mg/kg/injection, schedule: Q01DX009 (ip), vehicle: Klucel (hydroxypropylcellulose) (HPC) 90 % of control | dose: 7.0 mg/kg/injection, schedule: Q01DX009 (ip), vehicle: Klucel (hydroxypropylcellulose) (HPC) 115 % of control | dose: 18.0 mg/kg/injection, schedule: Q04DX003 (ip), vehicle: Klucel (hydroxypropylcellulose) (HPC) 100 % of control | dose: 28.0 mg/kg/injection, schedule: Q04DX003 (ip), vehicle: Klucel (hydroxypropylcellulose) (HPC) 86 % of control

CC(=O)Nc1ccc2c(O)cc(S(=O)(=O)O)cc2c1
inactive: [9] 107 % of control | [10] 98 % of control | [11] 114 % of control

COc1ccc(CN(CC(=O)O)S(C)(=O)=O)cc1
inactive: dose: 100.0 mg/kg/injection, schedule: Q04DX003 (ip), vehicle: other 103 % of control | dose: 200.0 mg/kg/injection, schedule: Q04DX003 (ip), vehicle: other 100 % of control | dose: 400.0 mg/kg/injection, schedule: Q04DX003 (ip), vehicle: other 109 % of control

Nc1ncnc2oc(-c3ccccc3)c(-c3ccccc3)c12
inactive: [1] 100 % of control | [2] 100 % of control | [3] 97 % of control | [4] 92 % of control

CCCCCCCCCCCCn1c(C)nc2ccccc21
inactive: dose: 10.0 mg/kg/injection, schedule: Q04DX003 (ip), vehicle: saline 105 % of control | dose: 20.0 mg/kg/injection, schedule: Q04DX003 (ip), vehicle: saline 120 % of control | dose: 40.0 mg/kg/injection, schedule: Q04DX003 (ip), vehicle: saline 115 % of control | dose: 60.0 mg/kg/injection, schedule: Q04DX003 (ip), vehicle: saline 109 % of control | dose: 90.0 mg/kg/injection, schedule: Q04DX003 (ip), vehicle: saline 104 % of control | dose: 135.0 mg/kg/injection, schedule: Q04DX003 (ip), vehicle: saline 86 % of control | [8] 105 % of control | dose: 305.0 mg/kg/injection, schedule: Q04DX003 (ip), vehicle: saline 110 % of control

CC1=CC(=O)[C@@H](O)[C@]2(C)[C@H]3[C@@]4(O)OC[C@]35[C@H]([C@@H](C)[C@H]4O)[C@@H](O)C(=O)O[C@@H]5C[C@@H]12
active: dose: 1.0 mg/kg/injection, schedule: Q01DX010 (ip), vehicle: steriod suspending solution 150 % of control | dose: 8.0 mg/kg/injection, schedule: Q01DX010 (ip), vehicle: steriod suspending solution 150 % of control
inactive: dose: 1.5 mg/kg/injection, schedule: Q01DX010 (ip), vehicle: acetone 100 % of control | dose: 2.0 mg/kg/injection, schedule: Q01DX010 (ip), vehicle: steriod suspending solution 107 % of control | dose: 3.0 mg/kg/injection, schedule: Q01DX010 (ip), vehicle: acetone 103 % of control | dose: 4.0 mg/kg/injection, schedule: Q01DX010 (ip), vehicle: steriod suspending solution 107 % of control | dose: 6.0 mg/kg/injection, schedule: Q01DX010 (ip), vehicle: acetone 115 % of control | dose: 12.0 mg/kg/injection, schedule: Q01DX010 (ip), vehicle: acetone 123 % of control
